Measurements: PMC5730616, “Inhibition of human kynurenine aminotransferase isozymes by estrogen and its derivatives” (Scientific Reports, 2017)
Values joined by “and” are separate entries in the source; they are usually repeats but may differ in a detail not shown here. Identical values can stand only once. Counter-ions that a name gives are not always drawn. Like-named read-outs stand apart in the source and are kept apart here. Each block holds one molecule with its values, some of them ahead of it.

Assays:
[1] = target: T1, KAT-II (Homo sapiens, UniProt Q8N5Z0); parameters: method as in PMID 27367665; settings: previously measured; cited from earlier work
T1 construct: made in house

[2] = target: T1, KAT-II; parameters: method as in PMID 27367665; settings: SPR, chi^2 0.34; cited from earlier work
[3] = target: T1, KAT-II; experiment: HPLC inhibition assay on recombinant human KAT-II (KYNA production); assay type: biochemical
Description: GraphPad Prism v7.02 software[59] was used to develop a nonlinear regression fit of the data collected in the inhibition assays. The IC50 is reported with the standard error.
The expression and purification of recombinant KAT-I and KAT-II protein was completed as previously described[60],[61].
The KAT inhibition assay was based on that described previously. […] Following incubation, the reaction was terminated by adding formic acid (0.8 M) in a 1:1 ratio. 50 µL of the mixture was transferred into a vial with 950 µL of water for HPLC analysis.
The production of KYNA was measured using HPLC with UV detection at a wavelength of 330 nm, using a C18 reverse-phase column, and 50% (v/v) water and 50% (v/v) methanol mobile phase. The data was collected in triplicate.

[4] = target: T2, human KAT-I (Homo sapiens, UniProt Q16773); experiment: HPLC inhibition assay on recombinant human KAT-I (KYNA production); assay type: biochemical
T2 sequence (Q16773 1-422): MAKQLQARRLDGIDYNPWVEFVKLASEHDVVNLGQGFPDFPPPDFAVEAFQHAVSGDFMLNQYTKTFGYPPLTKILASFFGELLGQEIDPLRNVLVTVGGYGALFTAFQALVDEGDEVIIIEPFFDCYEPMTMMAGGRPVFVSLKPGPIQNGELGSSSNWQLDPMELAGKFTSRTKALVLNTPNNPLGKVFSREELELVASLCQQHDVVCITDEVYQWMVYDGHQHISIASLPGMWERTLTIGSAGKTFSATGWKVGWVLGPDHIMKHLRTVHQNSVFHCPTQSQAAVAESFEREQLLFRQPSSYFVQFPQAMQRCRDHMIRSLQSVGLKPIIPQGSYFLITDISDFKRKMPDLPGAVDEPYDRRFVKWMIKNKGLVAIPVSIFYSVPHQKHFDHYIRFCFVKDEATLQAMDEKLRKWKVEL
Description: The KAT inhibition assay was based on that described previously[35]. 0.7 µg of KAT-I or KAT-II was incubated at 37 °C for 10 minutes in a 50 µL reaction mixture containing PLP (50 µM), α-ketoglutarate (5 mM), L-KYN (5 mM) in PBS, pH 7.4, and the inhibitor studied (1–2000 µM). Following incubation, the reaction was terminated by adding formic acid (0.8 M) in a 1:1 ratio. 50 µL of the mixture was transferred into a vial with 950 µL of water for HPLC analysis.

[5] = target: T1, KAT-II; experiment: Surface plasmon resonance binding assay, steady state affinity model; settings: KAT-II on CM5 chip, 25 °C, chi^2 0.481
Description: SPR was employed to evaluate the binding profile of estradiol disulfate on KAT-II. KAT-II was bound to a CM5 chip by amine coupling (achieving approximately 8000 RU). […] Due to the nature of this interaction, kinetic analyses could not be performed to directly evaluate the association and dissociation rate constants.
SPR binding affinity measurements were performed using the Biacore T200 with a CM5 sensor chip (GE Healthcare Life Sciences, Sydney, Australia). The experiment was prepared and obtained with the Biacore T200 Control Software, and analysed with the Biacore T200 Evaluation Software.
Prior to performing the SPR experiments, the solutions were filter sterilised for 10 min at 25 °C. KAT-II was diluted to a concentration of 350 µg/mL using sodium acetate (pH 4.5). The Biacore T200 compartment temperature was controlled at 25 °C and the flow rate was set to 10 µL/min. Using a 1:1 mixture of EDC (400 mM) and sulfo-NHS (100 mM), two flow cells on a CM5 sensor chip (containing a carboxymethylated dextran surface) were activated. Flow cell one contained a blank immobilisation (PBST buffer injection) and flow cell two had the prepared KAT-II sample injected. The two flow cells were deactivated using an injection of 1 M ethanolamine.
The analyte, estradiol disulfate, was prepared in running buffer (PBST with 5% DMSO) in a concentration series from 170 nM-43750 nM. […]

[6] = recombinant human KAT-II, inhibitor 1–2000 µM, read-out: IC50 on KAT-II
[7] = recombinant human KAT-I, inhibitor 1–2000 µM, read-out: IC50 on KAT-I

T1 sequence (Q8N5Z0 30-425): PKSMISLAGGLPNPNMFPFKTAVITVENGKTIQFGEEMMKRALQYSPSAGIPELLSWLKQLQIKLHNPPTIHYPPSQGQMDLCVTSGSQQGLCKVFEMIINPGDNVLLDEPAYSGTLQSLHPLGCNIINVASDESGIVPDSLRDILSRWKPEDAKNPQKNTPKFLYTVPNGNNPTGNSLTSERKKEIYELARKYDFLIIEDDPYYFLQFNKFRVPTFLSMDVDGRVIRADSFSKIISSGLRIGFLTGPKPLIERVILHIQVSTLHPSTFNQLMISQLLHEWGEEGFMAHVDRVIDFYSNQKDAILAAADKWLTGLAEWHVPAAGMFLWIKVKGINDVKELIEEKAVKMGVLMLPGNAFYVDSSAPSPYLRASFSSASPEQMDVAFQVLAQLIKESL

SMILES: CC1COc2c(N3CCN(N)CC3)c(F)cc3c(=O)c(C(=O)O)cn1c23 (stereo not drawn) [BFF-122]
IC50 [1]: 15 to 20 µM

SMILES: O=C(O)C(Cc1ccccc1)N1C(=O)c2cc(Cl)c(Cl)cc2C1=O (stereo not drawn) [NS-1502]
IC50 [1]: 315 µM | Kd [2]: 7.2 µM

SMILES: NC1Cc2ccccc2N(O)C1=O (stereo not drawn) [PF-04859989, reference compound]
IC50 [1]: 1 to 3 µM

IC50 [3, 6]: > 2 mM | IC50 [4, 7]: > 2 mM
SMILES: C[C@]12CCC3c4ccc(OS(=O)(=O)O)cc4CCC3C1CC[C@@H]2O (stereo partly drawn) [estradiol 3-sulfate, estradiol 3-sulfate sodium salt]

SMILES: C[C@]12CC[C@@H]3c4ccc(OS(=O)(=O)O)cc4CC[C@H]3[C@@H]1CC[C@@H]2OS(=O)(=O)O [estradiol disulfate, estradiol 3,17-disulfate dipotassium salt]
Increase of inhibition compared to estradiol ([3]; KAT-I and KAT-II inhibition assays, attributed to the 17-sulfate moiety): 10–100 fold | IC50 ([3]; recombinant human KAT-II, PLP 50 µM, L-KYN 5 mM, 37 °C 10 min, ± standard error, read-out: IC50 on KAT-II): 0.0263 mM | Reversibility of KAT-II inhibition ([3]; shown by varying PLP concentration in the reaction mixture): reversible | Kd [5]: 5.05 µM | IC50 ([4]; recombinant human KAT-I, PLP 50 µM, L-KYN 5 mM, 37 °C 10 min, ± standard error, read-out: IC50 on KAT-I): 0.292 mM

SMILES: C[C@]12CC[C@@H]3c4ccc(O)cc4CC[C@H]3[C@@H]1CC[C@@H]2O [estradiol, reference compound]
IC50 [3]: > 2 mM | IC50 [4]: > 2 mM

IC50 [3, 6]: > 2 mM and ~2 mM | IC50 [4, 7]: > 2 mM
SMILES: C[C@]12CCC3c4ccc(OS(=O)(=O)O)cc4CCC3C1CCC2=O (stereo partly drawn) [estrone sulfate, estrone sulfate potassium salt]
